Measurements taken from article PMC9075979 (Molecular Therapy, 2022).

Target: Omicron variant RBD or S1 domains-hACE2 binding (Homo sapiens, UniProt Q9BYF1)
Sequence (Q9BYF1 18-740, stated change not applied): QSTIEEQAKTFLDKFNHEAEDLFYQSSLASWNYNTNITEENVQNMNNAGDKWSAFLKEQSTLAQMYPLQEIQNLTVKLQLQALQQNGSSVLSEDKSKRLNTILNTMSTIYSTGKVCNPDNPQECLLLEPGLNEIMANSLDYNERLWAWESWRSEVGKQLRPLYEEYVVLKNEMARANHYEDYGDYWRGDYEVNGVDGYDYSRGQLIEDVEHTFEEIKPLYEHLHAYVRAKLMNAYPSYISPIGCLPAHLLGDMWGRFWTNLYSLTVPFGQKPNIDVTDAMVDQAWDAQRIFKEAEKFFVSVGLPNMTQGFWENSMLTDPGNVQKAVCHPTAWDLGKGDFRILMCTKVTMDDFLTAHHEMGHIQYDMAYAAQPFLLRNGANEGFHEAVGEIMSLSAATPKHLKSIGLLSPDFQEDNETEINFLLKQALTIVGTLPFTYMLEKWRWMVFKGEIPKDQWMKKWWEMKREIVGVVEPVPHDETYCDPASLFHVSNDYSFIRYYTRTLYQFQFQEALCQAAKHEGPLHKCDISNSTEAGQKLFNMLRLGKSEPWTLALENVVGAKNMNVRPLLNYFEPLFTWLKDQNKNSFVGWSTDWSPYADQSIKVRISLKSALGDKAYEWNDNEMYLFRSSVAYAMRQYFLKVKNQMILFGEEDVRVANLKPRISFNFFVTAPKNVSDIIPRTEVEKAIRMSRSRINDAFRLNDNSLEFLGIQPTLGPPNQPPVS

## c1ccc(-c2ccc(C(c3ccccc3)n3ccnc3)cc2)cc1 (stereo not shown) [bifonazole]
  binding of Omicron variant RBD or S1 bioreporters to hACE2: significantly reduced binding
